Target: human GPR17 short isoform (Homo sapiens, UniProt Q13304)
Experiment: GPR17 cAMP assay (antagonist mode, TR-FRET cAMP detection)
Format: cell-based
Settings: CHO-K1 cells stably expressing human GPR17 short isoform; with EC80 concentration of agonist MDL29,951, IBMX 0.5mM, forskolin 15µM; normalized to reference antagonist; read-out: hGPR17 cAMP IC50
Procedure, shortened: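 CHO-K1 cells stably expressing untagged human GPR17 short isoform, preincubated with compounds in HBSS/HEPES/0.1% BSA pH 7.4 plus EC80 MDL29,951 and 0.5 mM IBMX; forskolin (15 µM final) added after 5 min, then 30 min at room temperature. cAMP read by TR-FRET after 90 min lysis; normalized to reference antagonist maximum, sigmoidal fit.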

Chain of human GPR17 short isoform (Q13304 29-367): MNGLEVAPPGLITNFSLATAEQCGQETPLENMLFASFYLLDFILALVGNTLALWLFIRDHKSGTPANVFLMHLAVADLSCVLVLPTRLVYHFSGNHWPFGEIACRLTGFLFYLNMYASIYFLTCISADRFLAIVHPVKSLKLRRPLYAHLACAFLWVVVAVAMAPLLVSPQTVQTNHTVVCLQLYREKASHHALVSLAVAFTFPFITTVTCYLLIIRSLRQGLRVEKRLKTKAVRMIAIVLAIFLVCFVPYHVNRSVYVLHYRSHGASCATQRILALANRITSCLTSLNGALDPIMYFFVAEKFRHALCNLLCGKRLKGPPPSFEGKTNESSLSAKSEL

SMILES	IC50 [µM]
[2H]C([2H])(c1cnc(NS(=O)(=O)c2c[nH]c3c(-n4nccn4)c(Cl)ccc23)nc1OC)C(F)F [Example 79, 6-chloro-N-[5-(1,1-dideuterio-2,2-difluoroethyl)-4-methoxy-pyrimidin-2-yl]-7-(triazol-2-yl)-1H-indole-3-sulfonamide]	0.036
COc1nc(NS(=O)(=O)c2c[nH]c3c(-n4ncc(C)n4)c(Cl)ccc23)nc(OC)c1OCCF [Example 39, 6-chloro-N-[5-(2-fluoroethoxy)-4,6-dimethoxy-pyrimidin-2-yl]-7-(4-methyltriazol-2-yl)-1H-indole-3-sulfonamide]	0.055
COc1nc(NS(=O)(=O)c2c[nH]c3c(-n4cccn4)c(C(F)F)ccc23)nc(OC)c1OCCF [Example 51, 6-(difluoromethyl)-N-[5-(2-fluoroethoxy)-4,6-dimethoxy-pyrimidin-2-yl]-7-pyrazol-1-yl-1H-indole-3-sulfonamide]	0.094
COc1nc(NS(=O)(=O)c2c[nH]c3c(-n4nccn4)c(Br)ccc23)nc(OC)c1CC(F)F [Example 27, 6-bromo-N-[5-(2,2-difluoroethyl)-4,6-dimethoxy-pyrimidin-2-yl]-7-(triazol-2-yl)-1H-indole-3-sulfonamide]	0.019
COc1nc(NS(=O)(=O)c2c[nH]c3c(-n4nccn4)c(F)ccc23)nc(OC)c1OCC(F)F [Example 35, N-[5-(2,2-difluoroethoxy)-4,6-dimethoxy-pyrimidin-2-yl]-6-fluoro-7-(triazol-2-yl)-1H-indole-3-sulfonamide]	0.126
[2H]C([2H])(c1c(OC)nc(NS(=O)(=O)c2c[nH]c3c(-n4cccn4)c(Cl)ccc23)nc1OC)C(F)F [Example 86, 6-chloro-N-[5-(1,1-dideuterio-2,2-difluoroethyl)-4,6-dimethoxy-pyrimidin-2-yl]-7-pyrazol-1-yl-1H-indole-3-sulfonamide]	0.044
COc1nc(NS(=O)(=O)c2c[nH]c3c(-n4nccn4)cccc23)nc(OC)c1OCCF [Example 19, N-[5-(2-fluoroethoxy)-4,6-dimethoxy-pyrimidin-2-yl]-7-(triazol-2-yl)-1H-indole-3-sulfonamide]	0.316
COc1nc(NS(=O)(=O)c2c[nH]c3c(-n4nccn4)c(Cl)c(F)cc23)nc(OC)c1OCC(F)F [Example 64, 6-chloro-N-[5-(2,2-difluoroethoxy)-4,6-dimethoxy-pyrimidin-2-yl]-5-fluoro-7-(triazol-2-yl)-1H-indole-3-sulfonamide]	0.075
COc1nc(NS(=O)(=O)c2c[nH]c3c(-n4ccc(F)n4)c(Cl)ccc23)nc(OC)c1OCCF [Example 56, 6-chloro-N-[5-(2-fluoroethoxy)-4,6-dimethoxy-pyrimidin-2-yl]-7-(3-fluoropyrazol-1-yl)-1H-indole-3-sulfonamide]	0.049

Further molecules by falling IC50, results first:

IC50 [µM]	SMILES
1.27	COc1nc(NS(=O)(=O)c2c[nH]c3c(-n4nccn4)c(Cl)ccc23)nc(OC)c1OC(C)(C)CF [Example 58, 6-chloro-N-[5-(2-fluoro-1,1-dimethyl-ethoxy)-4,6-dimethoxy-pyrimidin-2-yl]-7-(triazol-2-yl)-1H-indole-3-sulfonamide]
0.195	COc1nc(NS(=O)(=O)c2c[nH]c3c(-n4nccn4)cccc23)nc(OC)c1C1CC1C#N (stereo not shown) [Example 21, N-[5-(2-cyanocyclopropyl)-4,6-dimethoxy-pyrimidin-2-yl]-7-(triazol-2-yl)-1H-indole-3-sulfonamide]
0.074	[2H]C([2H])(Oc1c(OC)nc(NS(=O)(=O)c2c[nH]c3c(-n4nccn4)c(Cl)ccc23)nc1OC)C(F)F [Example 59, 6-chloro-N-[5-(1,1-dideuterio-2,2-difluoro-ethoxy)-4,6-dimethoxy-pyrimidin-2-yl]-7-(triazol-2-yl)-1H-indole-3-sulfonamide]
0.069	COc1nc(NS(=O)(=O)c2c[nH]c3c(-n4nccn4)c(F)ccc23)nc(OC)c1CC(F)F [Example 32, N-[5-(2,2-difluoroethyl)-4,6-dimethoxy-pyrimidin-2-yl]-6-fluoro-7-(triazol-2-yl)-1H-indole-3-sulfonamide]
0.041	COc1nc(NS(=O)(=O)c2c[nH]c3c(-n4cccn4)c(Cl)ccc23)nc(OC)c1C1CC1C#N (stereo not shown) [Example 73, 6-chloro-N-[5-(2-cyanocyclopropyl)-4,6-dimethoxy-pyrimidin-2-yl]-7-pyrazol-1-yl-1H-indole-3-sulfonamide]
0.036	COc1nc(NS(=O)(=O)c2c[nH]c3c(-n4cccn4)c(Br)ccc23)nc(OC)c1OCCF [Example 83, 6-bromo-N-[5-(2-fluoroethoxy)-4,6-dimethoxy-pyrimidin-2-yl]-7-pyrazol-1-yl-1H-indole-3-sulfonamide]
0.021	COc1nc(NS(=O)(=O)c2c[nH]c3c(-n4cccn4)c(Cl)ccc23)nc(OC)c1OC(F)F [Example 66, 6-chloro-N-[5-(difluoromethoxy)-4,6-dimethoxy-pyrimidin-2-yl]-7-pyrazol-1-yl-1H-indole-3-sulfonamide]
